Data on seven molecules can be found in patent US6469002B1, “Imidazolidine compounds” (Millennium Pharmaceuticals, Inc., priority 2001, dated 2002).

The assay addresses T1, CXCR3 (Homo sapiens, UniProt P49682).
T1 construct: expressed in transfected cells
T1 sequence (P49682 1-368): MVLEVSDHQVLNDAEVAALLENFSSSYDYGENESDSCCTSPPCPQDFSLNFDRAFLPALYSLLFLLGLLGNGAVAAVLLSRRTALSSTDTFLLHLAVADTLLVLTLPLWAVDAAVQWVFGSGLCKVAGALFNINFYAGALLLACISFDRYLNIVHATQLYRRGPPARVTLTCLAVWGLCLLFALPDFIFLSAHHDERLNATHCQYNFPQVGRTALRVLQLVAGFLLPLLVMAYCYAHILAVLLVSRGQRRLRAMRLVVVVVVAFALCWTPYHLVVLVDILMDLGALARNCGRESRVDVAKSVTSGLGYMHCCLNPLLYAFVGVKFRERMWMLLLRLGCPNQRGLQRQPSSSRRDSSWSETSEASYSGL
Nature of the assay: CXCR3/IP-10 radioligand binding (125I-IP-10 competition, CXCR3.L1/2 cell membranes). The note with it: test compound 10 μmol/L, 125I-labeled IP-10 binding to CXCR3.L1/2 transfectant cell membrane. An excerpt:
The activity of the compounds of the present invention can be assessed using a suitable assay, such as a receptor binding assay, a chemotaxis assays, an extracellular acidification assay or a calcium flux assay (see, for example, Hesselgesser et al., J. Biol. Chem. 273(25):15687-15692 (1998) and WO 98/02151). For example, as described herein, small organic molecule antagonists of CXCR3/IP-10 binding have been identified utilizing cells engineered to express recombinant human CXCR3 (CXCR3.L1/2) and which bind ^125I-IP-10 and chemotax in response to IP-10, Mig or I-TAC. Specifically, a high through-put receptor binding assay, which monitors ^125I-IP-10 binding to CXCR3.L1/2 cell membranes, was used to identify small molecule antagonists which block binding of IP-10, Mig or I-TAC to CXCR3.
CXCR3.L1/2 cells were pelleted by centrifugation and stored at −80° C. The cells were lysed by thawing and resuspending at about 1.5×10^7 cells/ml in a hypotonic buffer (5 m mol/L HEPES (pH 7.2), 2 mmol/L EDTA, 10 μg/ml each leupeptin, aprotinin, and chymostatin, and 100 μg/ml PMSF (all from Sigma, St. Louis)). Nuclei and cellular debris was removed by centrifugation ([…], at 4° C.) for 10 min. The supematant was transferred to chilled centrifuge tubes (Nalge, Rochester, N.Y.) and the membrane fraction was recovered by centrifugation (25,000 g at 4° C.) for 45 min. The membrane pellet was resuspended in freezing buffer (10 mM HEPES (pH 7.2), 300 mmol/L Sucrose, 5 μg/ml each of leupeptin, aprotinin, and chymostatin, and 10 μg/ml PMSF). The total protein concentration was determined using a coomassie blue staining protein concentration assay kit (BioRad). The membrane preparation was aliquoted and stored at −80° C. until time of use.
CXCR3/IP-10 binding was performed in 96-well polypropylene plates (Costar) in a final volume of 0.1 ml of HBB buffer (50 mmol/L Hepes pH 7.4, 1 mmol/L CaCl2, 5 mmol/L MgCl2, 0.02% sodium azide, 0.5% BSA (bovine serum albumin)) containing 1 to 5 μg of CXCR3.L1/2 transfectant cell membrane protein and 0.05 to 0.2 nmol/L ^125I-labeled IP-10 (NEN, Boston, Mass.). Competition binding experiments were performed by including variable concentrations of unlabeled IP-10 or test compound. Nonspecific binding was determined following the addition of a 250 nmol/L unlabelled IP-10. Samples were incubated for 60 min at room temperature, and bound and free tracer (^125I-IP10) were separated by filtration through 96-well GF/B filterplates (Packard) presoaked in 0.3% polyethyleneimine. The filters were washed in HBB further supplemented with 0.5 mol/L NaCl, dried, and the amount of bound radioactivity determined by liquid scintillation counting. The competition is presented as the percent specific binding as calculated by 100×[(S-B)/(T-B)], where S is the radioactivity bound for each sample, B is background binding, and T is total bound in the absence of competitors. Duplicates were used throughout the experiments.

The term inhibition denotes the change of the read-out against control, counted positive when it falls. Read a high inhibition as a strong effect. Molecule `N#CC(C#N)=C1N(CCCNCc2ccc(CN3CCCCC3)cc2)CCN1Cc1cccc2ccccc12` [Compound 20, 1-[2-{N-(4-(1-Piperidinomethyl)benzyl)amino}propyl]-3-(1-naphthylmethyl)-2-imidazolidinylidenepropanedinitrile] registered an inhibition at 10 µM (Table 5) of 74%.
The % inhibition is how much of the control response was suppressed. Lower therefore signals a weak effect. Consider `CN(CCN1CCN(Cc2cccc3ccccc23)C1=C(C#N)C#N)Cc1cccc(CN2CCCCC2)c1` [Compound 6, 1-[2-{N-Methyl-N-(3-piperidinomethylbenzyl)amino}ethyl]-3-(1-naphthylmethyl)-2-imidazolidinylidenepropanedinitrile], for which, where the note is “Table 5”, the “% inhibition at 10 μmol/L” value was found to be 99%.
The same measure, in the same setting: then `CC(=O)N(CCN1CCN(Cc2cccc3ccccc23)C1=C(C#N)C#N)Cc1cccc(CN2CCCCC2)c1` [Compound 12, 1-[2-{N-Acetyl-N-(3-piperidinomethylbenzyl)amino}ethyl]-3-(1-naphthylmethyl)-2-imidazolidinylidenepropanedinitrile], with 76%.
Where the note is “Table 6”, `CCN(CCN1CCN(Cc2cc(C)cc(C)c2)C1=C(C#N)C#N)Cc1ccc(CN2CCCCC2)cc1` [Compound 23, 1-[2-{N-Ethyl-N-(4-(1-piperidinomethyl)benzyl)amino}ethyl]-3-(3,5-dimethylbenzyl)-2-imidazolidinylidenepropanedinitrile] yielded an inhibition at 10 µM of 97%.
Turning to “1-[2-{N-Ethyl-N-(4-N,N-dimethylaminomethylbenzyl)amino}ethyl]-3-(1-naphthylmethyl)-2-imidazolidinylidenepropanedinitrile [Compound 9]”, the “% inhibition at 10 μmol/L” value (Table 5) is reported as 94%.
`N#CC(C#N)=C1N(CCN(Cc2cccc(CN3CCCCC3)c2)C(=O)c2cccs2)CCN1Cc1cccc2ccccc12` [Compound 15, 1-[2-{N-(2-Thiophenecarbonyl)-N-(3-piperidinomethylbenzyl)amino}ethyl]-3-(1-naphthylmethyl)-2-imidazolidinylidenepropanedinitrile]: where the note is “Table 5”, the “% inhibition at 10 μmol/L” value is reported as 71%.
Under “Table 5”, `CCN(CCN1CCN(Cc2cccc3ccccc23)C1=C(C#N)C#N)Cc1cccc(CN2CCCCC2)c1` [Compound 17, 1-[2-{N-Ethyl-N-(3-piperidinomethylbenzyl)amino}ethyl]-3-(1-naphthylmethyl)-2-imidazolidinylidenepropanedinitrile] had an inhibition at 10 µM of 96%.
